Measurements: publication PMC3161871, “Heteroarylketones inhibit astroglial interleukin-6 expression via a STAT3/NF-κB signaling pathway” (Journal of Neuroinflammation, 2011)

Assays:
[1] = Brain bioavailability by LC-MS/MS of mouse plasma and brain samples; format: in vivo
Method: Based on the results obtained from primary murine astrocytes, we reasoned that HAK compounds might also suppress elevated IL-6 expression in vivo. Therefore, bioactivity of the compound HAK-2 was analyzed in the LPS-induced mouse septic shock model. In preparation of this in vivo study, selected HAK compounds were characterized in detail concerning brain bioavailability. […] For further in vivo investigations compound HAK-2 with a logBB of -0.22 was selected.

[2] = tested on: LPS-induced IL-6 expression in C57/B6 mice; assay: LPS-induced acute septic shock model (IL-6 in plasma, hippocampus, cortex); format: in vivo, mouse; conditions: 1 mg/kg LPS i.p., HAK-2 in parallel, 2 h
Method: A total number of 20 C57/B6 mice at the age of 5 months with an initial body weight of 22 g to 30 g was analyzed in this study. Mice were randomly assigned to 2 groups of control mice (injection of saline or LPS; n = 6 each) and 1 group of LPS-treated mice co-injected with compound HAK-2 (n = 8). Animals were housed at the Experimental Animal Core Facility of the University of Leipzig. The study was approved by the Regierungspräsidium Leipzig, License # TVV 28/07 on November 14, 2007. To induce septic shock and acute inflammation, 14 mice were injected intraperitoneally (i.p.) with 1 mg LPS (Serotyp 055:B5)/kg body weight. Saline injection i.p. was used as control treatment (n = 6). […] Two hours post treatment mice were sacrificed by CO2 inhalation and tissue samples from hippocampus and cortex as well as plasma were prepared as described later.
Mouse brain samples for qRT-PCR were prepared from 6 - 8 animals per group. After removal of the brain, the tissue samples were flushed shortly with ice cold saline and placed briefly on filter paper. Cortex and hippocampus were prepared, weighted and snap frozen in liquid nitrogen. Samples were stored at -80°C until RNA isolation. […]
Total RNA of cultured cells and homogenized mouse brain tissue samples was isolated using RNA isolation kit "NucleoSpin RNA II" from Macherey and Nagel. RNA quantity was measured by spectrophotometrical quantification (NanoDrop 2000, Peqlab, Erlangen, Germany). […] Quantitative real-time PCR was performed with QuantiFast SYBR Green PCR Master mix (Qiagen, Hilden, Germany) using Rotorgene 3000 system (Corbett, Sydney, Australia). […] Data were analyzed by Rotorgene 3000 Software version 6.0 by comparative quantitation. […]
Figure 6 Suppression of LPS-induced IL-6 expression in vivo by compound HAK-2. […] After 2 hours treatment, samples from hippocampus (A), cortex (B) and plasma (C) were prepared and analyzed by qRT-PCR and ELISA, respectively. […] Statistically significant differences between LPS group and LPS + HAK-2 group were calculated using the unpaired t-test (*p < 0.05; **p < 0.01; ***p < 0.001).

[3] = tested on: IL-6 mRNA expression in U343 cells; assay: OSM-induced IL-6 mRNA expression in U343 cells (qRT-PCR time course); format: cell-based, human; conditions: 20 μM compound
Method: The human glioma cell line U343 [34] was maintained in DMEM containing 10% fetal bovine serum and 60 μg/ml gentamycin (Invitrogen, Darmstadt, Germany) at 37°C in a 10% CO2 atmosphere.
Total RNA of cultured cells and homogenized mouse brain tissue samples was isolated using RNA isolation kit "NucleoSpin RNA II" from Macherey and Nagel. RNA quantity was measured by spectrophotometrical quantification (NanoDrop 2000, Peqlab, Erlangen, Germany). Total RNA (0.5 μg) was transcribed to cDNA using Superscript III and oligo-dT primer (Invitrogen, Darmstadt, Germany). Quantitative real-time PCR was performed with QuantiFast SYBR Green PCR Master mix (Qiagen, Hilden, Germany) using Rotorgene 3000 system (Corbett, Sydney, Australia). Gene expression was normalized to the expression of three reference genes glyceraldehyde 3-phosphate dehydrogenase (GAPDH), glucose-6-phosphate dehydrogenase (G6PDH) and hypoxanthine-guanine phosphoribosyltransferase (HPRT). Primers for PREP (5'-[…]-3'; 5'- […]-3') and IL-6 (5'-AAAGGACGTCACATTGCA-3'; 5'-[…]-3') were designed using the Primer3 Software (http://frodo.wi.mit.edu/). Data were analyzed by Rotorgene 3000 Software version 6.0 by comparative quantitation. The appropriate size of PCR products was confirmed by gel-electrophoresis stained with ethidium bromide.
To analyze the time-course of OSM-induced IL-6 expression, U343 cells were incubated with OSM for different periods of time as indicated in figure 1B. Amounts of IL-6 mRNA and protein were subsequently quantified by qRT-PCR and by ELISA, respectively. […] Significant induction of IL-6 protein was detected in the conditioned medium as early as 3 h post stimulation and reaching a maximum at 24 h.
To reveal whether bioactivity of HAK compounds is based on suppression of IL-6 protein biosynthesis or on interference with IL-6 mRNA expression OSM-treated U343 cells were incubated with 20 μM of compound HAK-2 for different periods of time. […] Therefore, it is very likely that the relevant molecular target of HAK compounds is involved in the OSM-induced signal transduction process not earlier than 6 h after onset of the stimulation.
Figure 4 Time course of OSM-induced IL-6 mRNA expression in U343 cells treated with compound HAK-2. […] U343 cells were stimulated with 100 ng/ml OSM and treated with 0.1% DMSO as solvent control (solid line, black triangle) or 20 μM HAK-2 (dashed line, white triangle). Samples were harvested at time points indicated to extract total RNA. IL-6 mRNA expression was analyzed by qRT-PCR. All data points are presented as mean ± SD, and were obtained from experiments carried out in quadruplicate. Statistical analysis were performed between control and HAK-2 samples from same time point. ns, not significant; ***p < 0.001.

In the case of `C[C@H](NC(=O)OCc1ccccc1)C(=O)N1CCC[C@H]1C(=O)c1nc2ccccc2s1` [HAK-2, Z-Ala-Pro-BTh], the logBB [1] is reported as -0.22, the “Reduction of induced IL-6 mRNA in cortex” value [2] is reported as 53% and the “Reduction of induced IL-6 mRNA in hippocampus” value [2] is reported as 60%. The “Reduction of plasma level of IL-6 protein vs LPS alone” value [2] was 55%, the “Inhibition of OSM-induced IL-6 mRNA expression (time course)” value ([3]; 100 ng/ml OSM) was “strong inhibition” and the “Effect on second IL-6 mRNA expression peak” value ([3]; 100 ng/ml OSM, 6 h post stimulation) was “completely suppresses”. For the same compound, the “Effect on first IL-6 mRNA peak” value ([3]; 1 h post OSM stimulation) was “insensitive”.
